Measured values: PubChem BioAssay AID179 (DTP/NCI, 2004)
The source made the active and inactive calls.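 How the source made its calls: active means compounds giving half or more protection of infected cells from virus-caused growth loss, again on retest; inactive means the rest.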

Test system: CEM cells HIV-1 protection, formazan growth assay
Assay: NCI AIDS Antiviral Assay
Conditions: for IC50: measured here: growth of uninfected CEM cells
Method in brief: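 Human CEM cells, uninfected and HIV-1-infected, exposed to five drug concentrations; growth measured by soluble formazan assay and scored as percent protection from infection, with protecting compounds retested.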

## CC(C)N(c1cc2c(cc1F)c(=O)c(C(=O)O)cn2-c1ccc(N2CCN(C)CC2)cn1)C(C)C
  EC50: > 200 µM
  IC50: > 200 µM

## O=C1c2scc(-c3ccccc3)c2-n2cccc21
  EC50: > 200 µM
  IC50: 17.8 µM

## CCN(CC)C(=S)/N=C(\SC(=S)N(CC)CC)c1ccccc1
  EC50: > 132 µM
  IC50: 52.5 µM

## Nc1ccc(C(=O)N/C(=C\c2ccc3c(c2)OCO3)c2nc3[nH]c(=S)[nH]c(=O)c3[nH]2)cc1
  outcome: inactive

## N#CC1(C#N)OC12CCS(=O)(=O)c1ccccc12 (configuration not stated)
  EC50: > 501 µM
  IC50: 89.1 µM

## COC(=O)c1ccccc1C1CN=NC12Cc1cc(C)cc(C)c1C2=O (configuration not stated)
  outcome: inactive

## O=S(=O)(C1=CC(S(=O)(=O)c2ccccc2)CN(Cc2ccccc2)C1c1cccc2ccccc12)c1ccccc1 (configuration not stated)
  outcome: inactive

## CCOc1c(OC)cc(-c2nc3n(n2)C(=O)C(CC)S3)cc1OC (configuration not stated)
  EC50: > 200 µM
  IC50: > 200 µM

## O=C1NC(N2CCCCC2)=N/C1=C\c1ccccc1O
  EC50: > 200 µM
  IC50: 174 µM

## C/C=C(/C)C(=O)O[C@H](C[C@@H](C)[C@H]1CC(c2ccoc2)OC1=O)[C@@]1(C)C(=O)CCC2O[C@]21C (some centres not stated)
  EC50: > 200 µM
  IC50: > 200 µM

## COc1cc2c(cc1O)C1C(O2)c2c(OC)cc3c(c2OC1(C)C)CCC(C)(C)O3 (configuration not stated)
  EC50: > 200 µM
  IC50: 32.4 µM

## C[C@@]1(Br)C[C@@](C)(Cl)[C@@H](Br)CC1/C=C/Cl (some centres not stated)
  EC50: > 200 µM
  IC50: 77.6 µM

## O=C1CN2CC(c3ccccc3)OC2c2ccccc2N1 (configuration not stated)
  EC50: > 224 µM
  IC50: > 224 µM

## CN(C)c1ccc(C=C2C(=O)OC(C)(C)OC2=O)cc1Br
  EC50: > 28.2 µM
  IC50: > 28.2 µM

## CC1(C)C2CC3OC3(C)C1C2 (configuration not stated)
  EC50: > 200 µM
  IC50: > 200 µM

## COC1O[C@H]2[C@H]3[C@@H]1[C@@H](OS(=O)(=O)c1ccc(C)cc1)C(=O)N3C[C@H]2O (some centres not stated)
  EC50: 18.2 µM
  IC50: 141 µM

## O=C1c2scnc2-c2nccc3c2c1nc1ccccc13
  EC50: > 2.51 µM
  IC50: 0.457 µM

## O=S1OCC2(CO1)COS(=O)OC2 (configuration not stated)
  EC50: > 200 µM
  IC50: 91.2 µM

## C[C@@H]1C[C@H]2[C@@H]3CCC4=CC(=O)C=C[C@]4(C)[C@@]3(F)[C@@H](O)C[C@]2(C)[C@@]1(O)C(=O)CO
  outcome: inactive

## C=C(CN(C)C)C(=O)c1ccccc1[N+](=O)[O-]
  EC50: > 200 µM
  IC50: 10.7 µM

## Oc1c(C2=NNC(c3ccc(Cl)cc3Cl)C2)ccc2ccccc12 (configuration not stated)
  EC50: > 200 µM
  IC50: 32.4 µM

## Nc1cn(Cc2ccccc2)c2nc(/C=C3/C=CC=CC3=O)c(O)n12
  EC50: > 200 µM
  IC50: > 200 µM

## Cc1ccc(/C=C2/N=C([Se])N(C)C2=O)cc1
  EC50: > 18.6 µM
  IC50: > 18.6 µM

## CC1C(Cl)(Cl)C1(C)/C=C/C1C(C)(C)C1(Cl)Cl (configuration not stated)
  EC50: > 200 µM
  IC50: 91.2 µM

## CSc1csc(-c2ccc(-c3ccc(-c4cc(SC)cs4)s3)s2)c1
  EC50: > 100 µM
  IC50: > 100 µM

## CC(C)OP(=O)(OC(C)C)/C(=N/N)NNc1ccc([N+](=O)[O-])cc1
  EC50: > 138 µM
  IC50: 83.2 µM

## N#CC(/C(=N/N=C(N)N)C(=O)Nc1ccccc1[N+](=O)[O-])c1nc(-c2ccc([N+](=O)[O-])cc2)cs1 (configuration not stated)
  EC50: > 27.5 µM
  IC50: > 27.5 µM

## Oc1ccccc1C1SC(c2ccccc2O)SC(c2ccccc2O)S1 (configuration not stated)
  EC50: > 200 µM
  IC50: 11.5 µM

## CC(N)CNCC(C)N (configuration not stated)
  EC50: > 200 µM
  IC50: > 200 µM

## O=S1c2ccccc2N=C(c2cccc3ccccc23)CC1c1cccc2ccccc12 (configuration not stated)
  EC50: > 60.3 µM
  IC50: > 60.3 µM

## CC1OC(CC(=O)O)CC2=C1C(=O)c1c(O)cccc1C2=O (configuration not stated)
  EC50: > 120 µM
  IC50: 0.0447 µM

## CC1(Br)C(=O)NC(=O)N([C@H]2C[C@H](O)[C@@H](CO)O2)C1N=[N+]=[N-] (some centres not stated)
  EC50: 145 µM
  IC50: > 200 µM

## O=C1NN2CCN=C2c2cccnc21
  EC50: > 1320 µM
  IC50: > 1320 µM

## CC(C)CCC[C@@H](C)C1CCC2[C@@H]3CCC4C[C@@H](CCCC=C(c5cc(Cl)c(O)c(C(=O)O)c5)c5cc(Cl)c(O)c(C(=O)O)c5)CC[C@]4(C)C3CC[C@@]21C (some centres not stated)
  EC50: 63.1 µM
  IC50: 166 µM

## O=[N+]([O-])c1ccc(C2=NOC(c3ccc(Cl)cc3)N2C23CC4CC(CC(C4)C2)C3)cc1 (configuration not stated)
  EC50: > 200 µM
  IC50: 182 µM

## NC1CSc2ccccc2NC1=O (configuration not stated)
  EC50: > 407 µM
  IC50: > 407 µM

## O=S1(=O)OCCOS(=O)(=O)C1(Cl)Cl
  EC50: > 50.1 µM
  IC50: > 50.1 µM

## CCOc1ccc(-n2nnc3c(N)nc(N)nc32)cc1
  EC50: > 200 µM
  IC50: > 200 µM

## N#CC[C@@H](O)COc1ccccc1
  EC50: > 200 µM
  IC50: > 200 µM

## Clc1ccc(/C=C/c2nc3ccccc3s2)cc1Cl
  EC50: > 200 µM
  IC50: 83.2 µM

## COC1/C=C\OC2(C)Oc3c(C)c(O)c4c(c3C2=O)C(=O)C=C(NC(=O)C(C)=C/C=C\C(C)C(O)C(C)C2OC(C)(C)OC(C1C)C2C)C4=O (configuration not stated)
  EC50: > 19.5 µM
  IC50: 2.4 µM

## CC(C)(CNC(=O)/C(Cl)=C(/Cl)C(=O)O)CNC(=O)/C(Cl)=C(/Cl)C(=O)O
  EC50: > 200 µM
  IC50: 17 µM

## O=[N+]([O-])C1=C(c2ccccc2)SC=C(c2ccccc2)S1
  EC50: > 200 µM
  IC50: 9.77 µM

## c1cc2cc3c4c5c(cc6ccc7cc8cc9c%10c8c8c7c6c5c8c5c%10c(c1C9N1CCOCCOCCOCCOCCOCC1)c2c45)C3 (configuration not stated)
  EC50: > 100 µM
  IC50: > 100 µM

## CC(C)n1c(=O)[nH]n(-c2ccccc2)c1=O
  EC50: > 200 µM
  IC50: > 200 µM

## NC(CSS(=O)(=O)O)=NCCSS(=O)(=O)O
  EC50: > 200 µM
  IC50: 110 µM

## CC1(C)OP(=O)(O)C=C1[Se]c1ccccc1
  EC50: > 324 µM
  IC50: > 324 µM

## CC(C)(CCl)NC(=O)c1cccc(C(=O)NC(C)(C)CCl)n1
  EC50: > 28.8 µM
  IC50: > 28.8 µM

## Cc1ccc(C)c(C2=C/C(=C/c3ccc(N(CCC#N)CCC#N)cc3)C(=O)O2)c1
  EC50: > 9.55 µM
  IC50: > 9.55 µM

## C1CSC2=C(S1)SC1=C(S2)SC(=C2SC3=C(SC4=C(SCCS4)S3)S2)S1
  EC50: > 200 µM
  IC50: > 200 µM

## COC(=O)NN(C(=O)OC)c1c(-c2ccccc2)nc(SC)n1N
  EC50: > 200 µM
  IC50: > 200 µM

## C1=NCCN=Cc2ccccc2NCCNc2ccccc21
  EC50: > 200 µM
  IC50: 91.2 µM

## N.N.N.N.N.O=S(=O)([O-])S(=O)(=O)[O-].[Co+3]
  EC50: > 42.7 µM
  IC50: > 42.7 µM

## CCOC(=O)c1ccc(Nc2nc3cc(C(F)(F)F)ccc3nc2C(=O)OCC)cc1
  EC50: > 200 µM
  IC50: 83.2 µM

## O=C(O)C1C(C(=O)O)C2C3C4C1C1C2C3C41 (configuration not stated)
  outcome: inactive

## OCC1=CC(NC2CC(CO)C(O)C(O)C2O)C(O)C(O)C1O (configuration not stated)
  outcome: inactive

## O=C1/C(=C\c2cccc(Oc3ccccc3)c2)SC(c2ccccc2)N1Cc1ccccc1 (configuration not stated)
  EC50: > 20 µM
  IC50: 1.29 µM

## COc1c2c(nc3ccccc13)-c1cc(C(CC(=O)OC(C)(C)C)C(=O)OC(C)C)c(CO)c(=O)n1C2 (configuration not stated)
  EC50: > 28.8 µM
  IC50: 0.479 µM

## Cc1cc2c(C)n(Cc3ccc(Cl)cc3Cl)nc2c(C#N)c1C
  EC50: > 20.9 µM
  IC50: > 20.9 µM

## O=c1[nH]c2ccccc2c(O)c1Cc1c(O)c2ccccc2[nH]c1=O
  EC50: > 25.1 µM
  IC50: > 25.1 µM

## CC1=NN(c2ccccc2)C(=O)C1N=Nc1ccc(S(N)(=O)=O)cc1 (configuration not stated)
  outcome: inactive

## O=C(CCc1ccc(O)c(O)c1)NCCc1cc(O)c(O)c(O)c1
  EC50: > 200 µM
  IC50: 5.01 µM
